From paper PMC4306314, “Differential neuroprotective potential of CRMP2 peptide aptamers conjugated to cationic, hydrophobic, and amphipathic cell penetrating peptides” (Frontiers in Cellular Neuroscience, 2015)
Read-outs that look alike come from different tables or passages of the source. Where no end group is shown, it is not given here.

Key:
[1] = of the CPP itself; ref Sarko et al., 2010; cited from earlier work
[2] = parameters: method as in Wender et al., 2000; details: ref Wender et al., 2000; cited from earlier work
[3] = test system: GPMVs derived from cortical neurons; assay: Peptide penetration into giant plasma membrane vesicles (GPMVs), di-4-ANEPPDHQ staining; format: in vitro ADME, rat; details: 10 µM peptide; for Change in percent of GPMVs with intracellular staining, vesicles from Glu/Gly-challenged vs unchallenged cells: neurons challenged 1 h with 200 µM glutamate + 20 µM glycine before vesiculation
Experimental: Giant plasma membrane vesicles (GPMVs) were obtained as previously described in Sezgin et al. ([2012]). Briefly, GPMVs were generated from cortical neurons incubated at 37°C for 90 min in a vesiculation buffer containing 10 mM HEPES, 150 mM NaCl, 2 mM CaCl2, pH 7.4 containing 2 mM N-ethyl maleimide (NEM). After GPMV formation, the buffer containing vesicles was recovered and conserved at 4°C for at least 2 h to allow the vesicles to concentrate at the bottom of the tube. As the GPMVs were stable for ~48 h (data not shown), they were used the day after formation at the latest.
All experiments for microscopic analyses of GPMVs were performed on 35 mm glass bottom dishes pre-coated with BSA (1 mg/mL for 1 h at room temperature). Approximately 100 µL of GMPVs labeled with 5 µM di-4-ANEPPDHQ were incubated for 3 h at room temperature with 10 µM of CBD3 peptide aptamers. di-4-ANEPPDHQ, a styryl dye that was originally developed to detect transmembrane potential changes, is considered to be a good probe for rafts (Jin et al., [2005]) and was used to label GPMVs. di-4-ANEPPDHQ is able to partition into both liquid-ordered and liquid-disordered phase domains in model membranes, reacts to the environmental difference between the two phases via conformational changes, thus resulting in different fluorescence properties (Jin et al., [2005]). Here, we studied the 500–550 nm emission of the probe, which accounts largely for the liquid ordered phase.
Fluorescence imaging was performed with an inverted microscope, Nikon Eclipse TE2000-U, using objective Nikon Super Fluor 20× 0.75 NA and a Photometrics cooled CCD camera CoolSNAPHQ-ES2 (Roper Scientific, Tucson, AZ, USA) controlled by MetaFluor 6.3 software (Molecular Devices, Downingtown, PA, USA). […] Twenty images of each condition were systematically recorded randomly, using a FITC filter (excitation and emission wavelength 488 nm and 500–550 nm, respectively), which accounted for the liquid ordered contribution of di-4-ANEPPDHQ or the localization of FITC-peptides.

cortical neurons [4] = assay: Uptake and efflux of FITC-labeled CBD3 peptides from cortical neurons; format: in vitro ADME, rat; details: for Cumulative efflux (AUC), glutamate-challenged vs unchallenged cells, long-term application: chronic peptide treatment, media sampled up to 3 h
Experimental: Cortical neurons were seeded into 96-well plates at 3.5 × 10^4 cells per well and cultured until 7 DIV at 37°C and 5% CO2. […] After four washes with phenol red free Leibovitz medium, the FITC fluorescence in the cells was measured using a Synergy 2 fluorescent plate reader (Biotek, Winooski, VT, USA) at an excitation wavelength of 485 nm and emission wavelength of 530 nm. […] To correct for any differences in cell plating, at the end of the experiment cortical neurons were lysed with 20 mM Tris, pH 7.4, 50 mM NaCl, 1% NP40, 0.5% sodium deoxycholate, 0.1% SDS Protease inhibitor cocktail set III (Calbiochem), phosphatase inhibitor cocktail set I (Calbiochem), 50 U/ml benzonase (Merck) and the protein quantity determined with a Pierce assay.

cortical neurons [5] = assay: Glutamate-induced toxicity, chromogenic cell viability assay; format: cell-based, rat; details: for Prevention of Glu/Gly-induced neuronal cell death by NMDAR subunit blockers: Ifenprodil 1 µM, Peaqx 5 µM, 10 min before and during 200 µM glutamate/20 µM glycine 30 min, 7 DIV, viability 24 h later, 32 wells
Experimental: E19 neurons (grown in 96 well plates) were stimulated with 200 µM glutamate/20 µM glycine to induce neuronal death as previously described with modifications (Brittain et al., [2011a]). Neurons were pre-treated with peptides by removing half of the culture medium and replacing with fresh medium containing twice the final concentration of peptide. Neurons were then stimulated by removing half the medium and replacing with fresh medium containing 400 µM glutamate/40 µM glycine and 1X peptide concentration. Following a 30 min stimulation the medium was completely removed and replaced with half fresh/half conditioned medium. Cell viability was quantified 24 h later using the 3-(4,5-dimethylthiazol-2-yl)-5-(3-carboxymethoxyphenyl)-2-(4-sulfophenyl)-2H-tetrazolium cell viability assay (Promega, Madison, WI, USA) as previously described (Brittain et al., [2011a]). Subunit-specific NMDAR antagonists Peaqx (NR2A) and Ifenprodil (NR2B) were purchased from Sigma.

CRMP2-NR2B interaction = biological target: T1, CRMP2-NR2B interaction (Rattus norvegicus, UniProt Q00960); assay: Co-immunoprecipitation of NR2B with CRMP2 from rat brain lysates; format: binding; details: 10 µM peptide, overnight 4°C, rat brain lysate, immunoblot, n = 4
T1 construct: Rat brains were lysed into the immunoprecipitation buffer; from tissue; host or cells: rat brain
Experimental: Rat brains were lysed into the immunoprecipitation buffer containing 20 mM Tris-HCl pH 7.4, 50 mM NaCl, 2 mM MgCl2, 1% (vol/vol) NP40, 0.5% (mass/vol) sodium deoxycholate with Protease/phosphatase inhibitors cocktails (Calbiochem) and Benzonase (50 U/mL^−1), using a dounce homogenizer. The lysates were clarified by centrifugation at 10000 g, 10 min, 4°C then total protein concentration was determined by BCA protein assay (Cat# PI23225, Thermo scientific). For the co-immunoprecipitation, 300 µg of total protein was incubated with 1 µg of CRMP2 antibody (Cat# C2993, Sigma, St. Louis, MO, USA) of non-specific rabbit IgG, in the presence of 10 µM of the indicated peptides and incubated overnight at 4°C under gentle agitation. Protein G magnetic beads (Cat# 10004D, Life Technologies) pre-equilibrated with the immunoprecipitation buffer, were added to the mixture and allowed to incubate for 1 h at 4°C to capture the immuno-complexes. The beads were washed four times with the immunoprecipitation buffer before re-suspension in Laemmli buffer and boiling at 95°C for 5 min prior to immunoblotting.
Indicated samples were loaded on 4–12% NuPAGE® gels (Life Technologies). […] Films were scanned, and quantified using Un-Scan-It gel version 6.1 scanning software (Silk Scientific Inc, Orem, UT, USA).

T1 sequence (Q00960 27-1482, other chains not shown): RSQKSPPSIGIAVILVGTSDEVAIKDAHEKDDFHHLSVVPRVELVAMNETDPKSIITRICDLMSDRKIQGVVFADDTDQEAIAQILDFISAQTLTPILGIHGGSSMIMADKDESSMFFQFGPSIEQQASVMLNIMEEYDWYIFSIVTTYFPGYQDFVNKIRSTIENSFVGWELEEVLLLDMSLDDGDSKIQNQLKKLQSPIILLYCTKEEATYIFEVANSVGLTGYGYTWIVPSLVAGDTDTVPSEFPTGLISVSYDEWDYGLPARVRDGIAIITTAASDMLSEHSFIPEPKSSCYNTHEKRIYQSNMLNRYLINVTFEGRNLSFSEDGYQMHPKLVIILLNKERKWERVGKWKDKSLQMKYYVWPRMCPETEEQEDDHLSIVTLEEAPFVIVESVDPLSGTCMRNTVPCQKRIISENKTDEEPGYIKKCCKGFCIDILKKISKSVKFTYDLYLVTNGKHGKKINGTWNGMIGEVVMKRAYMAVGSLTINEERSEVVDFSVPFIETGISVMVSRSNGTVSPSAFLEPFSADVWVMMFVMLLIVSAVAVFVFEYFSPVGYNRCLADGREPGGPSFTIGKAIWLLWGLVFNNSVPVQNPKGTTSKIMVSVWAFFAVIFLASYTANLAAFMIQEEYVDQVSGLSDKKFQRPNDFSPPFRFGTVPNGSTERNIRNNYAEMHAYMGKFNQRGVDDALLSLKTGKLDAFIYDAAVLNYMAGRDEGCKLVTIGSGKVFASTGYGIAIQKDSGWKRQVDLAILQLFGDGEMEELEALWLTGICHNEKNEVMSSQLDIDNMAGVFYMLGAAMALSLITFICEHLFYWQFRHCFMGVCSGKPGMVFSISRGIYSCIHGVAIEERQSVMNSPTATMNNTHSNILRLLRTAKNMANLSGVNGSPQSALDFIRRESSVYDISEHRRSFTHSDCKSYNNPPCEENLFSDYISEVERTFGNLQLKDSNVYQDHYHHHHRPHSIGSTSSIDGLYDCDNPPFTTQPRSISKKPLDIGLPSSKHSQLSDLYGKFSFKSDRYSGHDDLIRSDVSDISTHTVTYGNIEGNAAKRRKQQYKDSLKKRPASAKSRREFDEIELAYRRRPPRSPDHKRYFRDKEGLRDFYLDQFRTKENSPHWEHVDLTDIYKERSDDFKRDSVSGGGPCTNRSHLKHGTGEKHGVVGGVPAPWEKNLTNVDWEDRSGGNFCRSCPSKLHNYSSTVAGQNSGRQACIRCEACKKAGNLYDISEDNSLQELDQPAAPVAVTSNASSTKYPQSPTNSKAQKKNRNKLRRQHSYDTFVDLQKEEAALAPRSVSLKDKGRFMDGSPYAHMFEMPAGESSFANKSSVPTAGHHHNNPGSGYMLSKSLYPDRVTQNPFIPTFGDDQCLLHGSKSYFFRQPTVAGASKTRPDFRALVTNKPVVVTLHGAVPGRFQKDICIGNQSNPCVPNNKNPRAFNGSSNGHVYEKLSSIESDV

## RRRRRRRRR [R9, nona-arginine, cationic cell penetrating peptide]
[1]
  Half-life (t1/2): ~ 2 h
[2]
  Penetration compared to TAT: greater than 20 fold

## YGRKKRRQRRRARSRLAELRGVPRGL [TAT-CBD3]
[3]; GPMVs from control (untreated) cortical neurons, 5 µM di-4-ANEPPDHQ, room temperature, 3 h (methods) or 60 min, fluorescence microscopy, n = 2 experiments
  Percent of GPMVs exhibiting lumenal accumulation of smaller vesicles: ~ 54%
[3]
  Change in percent of GPMVs with intracellular staining, vesicles from Glu/Gly-challenged vs unchallenged cells: did not alter
Cortical neurons [4]; 1, 2 and 3 h post peptide application, irrespective of excitotoxic challenge
  Efflux fluorescence compared to MTS-CBD3-treated cells, long-term application: lower
Cortical neurons [4]
  Cumulative efflux (AUC), glutamate-challenged vs unchallenged cells, long-term application: indistinguishable
Cortical neurons [5]; concentration-response viability curve, four-parameter fit, variable Hill slope, 32 wells from two experiments, extrapolated, read-out: IC50 for inhibition of glutamate-mediated toxicity
  IC50: 3.2 µM

## AAVALLPAVLLALLAP [MTS]
[1]
  Half-life (t1/2): ~ 48 h

## CC(C(O)c1ccc(O)cc1)N1CCC(Cc2ccccc2)CC1 (centres unmarked) [Ifenprodil, reference compound]
Cortical neurons [5]
  Prevention of Glu/Gly-induced neuronal cell death by NMDAR subunit blockers: completely prevent

## RRRRRRRRRARSRLAELRGVPRGL [R9-CBD3]
CRMP2-NR2B interaction
  Inhibition of NR2B-CRMP2 interaction relative to no peptide control: ~ 80%
Cortical neurons [5]; 24 h
  IC50: ~0.564 µM

## YGRKKRRQRRR [TAT]
[1]
  Half-life (t1/2): ~ 9 h

## KLALKLALKALKAALKLA [MAP]
[1]
  Half-life (t1/2): > 72 h

## AAVALLPAVLLALLAPARSRLAELRGVPRGL [MTS-CBD3]
[3]
  Change in percent of GPMVs with intracellular staining, vesicles from Glu/Gly-challenged vs unchallenged cells: did not alter
Cortical neurons [4]
  Cumulative efflux (AUC), glutamate-challenged vs unchallenged cells, long-term application: ~ 24%

## C[C@H](NC(c1cccc2[nH]c(=O)c(=O)[nH]c12)P(=O)(O)O)c1ccc(Br)cc1 (some centres unmarked) [Peaqx, reference compound]
Cortical neurons [5]
  Prevention of Glu/Gly-induced neuronal cell death by NMDAR subunit blockers: not

## KLALKLALKALKAALKLAARSRLAELRGVPRGL [MAP-CBD3]
CRMP2-NR2B interaction
  Inhibition of NR2B-CRMP2 interaction relative to no peptide control: ~ 60%
